Experimental data: the NIST ThermoML archive (doi:10.1016/j.jct.2011.02.008)

Assay: xn = mol fraction of the nth substance listed
Conditions: Liquid, Vibrating tube method

COC(=O)c1ccccc1 [methyl benzoate] + CCCCCCO
mass density [kg/m3]
Conditions | x1 = 0.1004 | x1 = 0.2007 | x1 = 0.3007 | x1 = 0.4013 | x1 = 0.5005 | x1 = 0.6009 | x1 = 0.7 | x1 = 0.8008 | x1 = 0.9009
318.15 K, 30000 kPa | 846.9 | 872.9 | 899.1 | 925.4 | 951.5 | 977.9 | 1003.9 | 1030.5 | 1056.8
318.15 K, 35000 kPa | 849.9 | 875.9 | 902.1 | 928.4 | 954.5 | 980.9 | 1006.9 | 1033.5 | 1059.8
318.15 K, 40000 kPa | 852.8 | 878.8 | 905.1 | 931.4 | 957.4 | 983.8 | 1009.8 | 1036.4 | 1062.7
318.15 K, 45000 kPa | 855.7 | 881.7 | 907.9 | 934.3 | 960.3 | 986.7 | 1012.7 | 1039.3 | 1065.6
318.15 K, 50000 kPa | 858.4 | 884.5 | 910.7 | 937.1 | 963.1 | 989.5 | 1015.5 | 1042.1 | 1068.4
318.15 K, 55000 kPa | 861.1 | 887.2 | 913.4 | 939.8 | 965.8 | 992.2 | 1018.2 | 1044.6 | 1071.1
318.15 K, 60000 kPa | 863.6 | 889.6 | 915.9 | 942.3 | 968.3 | 994.9 | 1020.7 | 1047.2 | 1073.6
328.15 K, 100 kPa | 818.7 | 844.4 | 870.4 | 896.7 | 922.5 | 948.8 | 974.9 | 1001.4 | 1027.8
328.15 K, 1000 kPa | 819.4 | 845.1 | 871.1 | 897.4 | 923.2 | 949.5 | 975.6 | 1002.1 | 1028.5
328.15 K, 5000 kPa | 822.6 | 848.3 | 874.3 | 900.5 | 926 | 952.6 | 978.6 | 1005.1 | 1031.5
328.15 K, 10000 kPa | 826.4 | 852.1 | 878.1 | 904.3 | 930.1 | 956.3 | 982.2 | 1008.7 | 1035.1
328.15 K, 15000 kPa | 830 | 855.7 | 881.7 | 907.8 | 933.7 | 959.9 | 985.8 | 1012.3 | 1038.6
328.15 K, 20000 kPa | 833.5 | 859.2 | 885.2 | 911.3 | 937.2 | 963.3 | 989.2 | 1015.7 | 1042
328.15 K, 25000 kPa | 836.9 | 862.6 | 888.6 | 914.6 | 940.5 | 966.6 | 992.5 | 1019 | 1045.3
328.15 K, 30000 kPa | 840.1 | 865.8 | 891.8 | 917.9 | 943.7 | 969.9 | 995.7 | 1022.2 | 1048.5
328.15 K, 35000 kPa | 843.3 | 869 | 895 | 921.1 | 946.9 | 973 | 998.9 | 1025.3 | 1051.6
328.15 K, 40000 kPa | 846.3 | 872 | 898 | 924.1 | 950 | 976 | 1001.9 | 1028.3 | 1054.6
328.15 K, 45000 kPa | 849.2 | 874.9 | 901 | 927.1 | 952.9 | 979 | 1004.9 | 1031.3 | 1057.6
328.15 K, 50000 kPa | 852.1 | 877.8 | 903.9 | 930 | 955.8 | 981.9 | 1007.8 | 1034.2 | 1060.5
328.15 K, 55000 kPa | 854.9 | 880.6 | 906.7 | 932.8 | 958.7 | 984.8 | 1010.7 | 1037.1 | 1063.3
328.15 K, 60000 kPa | 857.4 | 883.2 | 908.8 | 935.6 | 960.6 | 987.4 | 1013.3 | 1039.6 | 1066.1
338.15 K, 100 kPa | 810.7 | 836.2 | 862 | 888 | 913.7 | 939.7 | 965.6 | 992 | 1018.4
338.15 K, 1000 kPa | 811.4 | 837 | 862.7 | 888.7 | 914.4 | 940.4 | 966.3 | 992.7 | 1019.1
338.15 K, 5000 kPa | 814.9 | 840.4 | 866.1 | 892 | 917.7 | 943.7 | 969.5 | 996 | 1022.3
338.15 K, 10000 kPa | 818.9 | 844.3 | 870.1 | 896 | 921.6 | 947.6 | 973.4 | 999.7 | 1026
338.15 K, 15000 kPa | 822.7 | 848.2 | 873.8 | 899.7 | 925.4 | 951.4 | 977.2 | 1003.4 | 1029.7
338.15 K, 20000 kPa | 826.4 | 851.8 | 877.5 | 903.4 | 929.1 | 955 | 980.7 | 1007 | 1033.3
338.15 K, 25000 kPa | 829.9 | 855.3 | 881 | 906.9 | 932.5 | 958.5 | 984.2 | 1010.5 | 1036.7
338.15 K, 30000 kPa | 833.3 | 858.7 | 884.4 | 910.3 | 935.9 | 961.8 | 987.5 | 1013.8 | 1040
338.15 K, 35000 kPa | 836.5 | 862 | 887.7 | 913.6 | 939.2 | 965.1 | 990.8 | 1017.1 | 1043.3
338.15 K, 40000 kPa | 839.7 | 865.1 | 890.9 | 916.8 | 942.4 | 968.3 | 994 | 1020.2 | 1046.4
338.15 K, 45000 kPa | 842.7 | 868.2 | 894 | 919.9 | 945.5 | 971.4 | 997.1 | 1023.3 | 1049.5
338.15 K, 50000 kPa | 845.7 | 871.2 | 897 | 922.9 | 948.5 | 974.4 | 1000.1 | 1026.4 | 1052.5
338.15 K, 55000 kPa | 848.6 | 874.1 | 899.9 | 925.8 | 951.4 | 977.4 | 1003.1 | 1029.3 | 1055.5
338.15 K, 60000 kPa | 851.4 | 876.8 | 902.8 | 928.7 | 954.3 | 980.1 | 1005.8 | 1032 | 1058.2
348.15 K, 100 kPa | 802.6 | 827.8 | 853.4 | 879.1 | 904.6 | 930.4 | 956.1 | 982.5 | 1008.8
348.15 K, 1000 kPa | 803.3 | 828.6 | 854.2 | 879.9 | 905.4 | 931.3 | 956.9 | 983.2 | 1009.5
348.15 K, 5000 kPa | 807 | 832.2 | 857.7 | 883.4 | 908.8 | 934.7 | 960.3 | 986.6 | 1012.9
348.15 K, 10000 kPa | 811.2 | 836.4 | 861.9 | 887.6 | 913 | 938.8 | 964.4 | 990.7 | 1016.9
348.15 K, 15000 kPa | 815.2 | 840.4 | 865.9 | 891.4 | 917 | 942.8 | 968.4 | 994.6 | 1020.7
348.15 K, 20000 kPa | 819 | 844.2 | 869.7 | 895.4 | 920.8 | 946.6 | 972.1 | 998.3 | 1024.4
348.15 K, 25000 kPa | 822.7 | 847.9 | 873.4 | 899.1 | 924.5 | 950.2 | 975.8 | 1001.9 | 1028
348.15 K, 30000 kPa | 826.2 | 851.4 | 877 | 902.6 | 928 | 953.8 | 979.3 | 1005.4 | 1031.5
348.15 K, 35000 kPa | 829.6 | 854.8 | 880.4 | 906 | 931.4 | 957.2 | 982.7 | 1008.9 | 1034.9
348.15 K, 40000 kPa | 832.9 | 858.1 | 883.7 | 909.3 | 934.7 | 960.5 | 986 | 1012.2 | 1038.2
348.15 K, 45000 kPa | 836.1 | 861.3 | 886.9 | 912.5 | 938 | 963.7 | 989.3 | 1015.4 | 1041.4
348.15 K, 50000 kPa | 839.1 | 864.4 | 890 | 915.7 | 941.1 | 966.9 | 992.4 | 1018.5 | 1044.5
348.15 K, 55000 kPa | 842.1 | 867.4 | 893 | 918.7 | 944.2 | 969.9 | 995.5 | 1021.6 | 1047.6
348.15 K, 60000 kPa | 844.9 | 870.2 | 895.8 | 921.5 | 947 | 972.8 | 998.2 | 1024.6 | 1050.4
358.15 K, 100 kPa | 794.1 | 819.1 | 844.4 | 869.9 | 895.3 | 921 | 946.6 | 972.8 | 999
358.15 K, 1000 kPa | 795 | 820 | 845.3 | 870.8 | 896.1 | 921.7 | 947.4 | 973.6 | 999.8
358.15 K, 5000 kPa | 798.7 | 823.7 | 849 | 874.5 | 899.8 | 925.5 | 951 | 977.2 | 1003.3
358.15 K, 10000 kPa | 803.1 | 828.2 | 853.5 | 878.9 | 904.2 | 929.9 | 955.3 | 981.4 | 1007.5
358.15 K, 15000 kPa | 807.4 | 832.4 | 857.7 | 883.1 | 908.4 | 934 | 959.5 | 985.5 | 1011.6
358.15 K, 20000 kPa | 811.4 | 836.4 | 861.7 | 887.1 | 912.3 | 938 | 963.4 | 989.5 | 1015.5
358.15 K, 25000 kPa | 815.3 | 840.3 | 865.6 | 891 | 916.2 | 941.8 | 967.3 | 993.3 | 1019.3
358.15 K, 30000 kPa | 818.9 | 844 | 869.3 | 894.7 | 919.9 | 945.5 | 970.9 | 996.9 | 1022.9
358.15 K, 35000 kPa | 822.4 | 847.6 | 872.8 | 898.3 | 923.5 | 949.1 | 974.5 | 1000.5 | 1026.5
358.15 K, 40000 kPa | 825.9 | 851 | 876.3 | 901.7 | 926.9 | 952.6 | 978 | 1003.9 | 1029.9
358.15 K, 45000 kPa | 829.2 | 854.3 | 879.6 | 905.1 | 930.3 | 956 | 981.3 | 1007.3 | 1033.2
358.15 K, 50000 kPa | 832.4 | 857.5 | 882.9 | 908.3 | 933.6 | 959.3 | 984.6 | 1010.6 | 1036.5
358.15 K, 55000 kPa | 835.5 | 860.7 | 886 | 911.5 | 936.7 | 962.4 | 987.8 | 1013.7 | 1039.7
358.15 K, 60000 kPa | 838.5 | 863.5 | 889.1 | 914.4 | 939.8 | 965.3 | 990.7 | 1016.9 | 1042.6
